US20240246913A1, “2-CARBOXYL-INDOLE INHIBITORS OF METALLO-BETA-LACTAMASES” (Oxford University Innovation Limited, priority 2021, published 2024)

Columns and labels:
[1] = test system: bacteria; assay: Thigh and/or septicaemia mouse model of infection, with meropenem; type: in vivo; conditions: NMRI mice; single dose with meropenem subcutaneous 1 h after inoculation; endpoint 3 h after treatment initiation
Description: Female NMRI mice (5-6 weeks old, 26-30 gram, n=5) were rendered neutropenic via intraperitoneal injection of two doses of cyclophosphamide on day 4 and day 1 before infection. The animals were infected via intramuscular injection of an inoculum containing 10^6 CFU/mL of bacteria in the left thigh. The animals were treated with a single dose of meropenem subcutaneous +/− inhibitor 1 h after inoculation, and animals were either euthanised at the start of treatment or at the study endpoint at 3 h after treatment initiation. Clinical scores were monitored at 1 and 4 hours post inoculation and were in all cases mild or moderate. Thighs were aseptically removed from the animals, homogenised, diluted, and plated for incubation. Bacterial counting was performed after 18-22 h of incubation at 35° C. in ambient air.
Immunocompetent female NMRI mice mice (5-6 weeks old, 26-30 gram, n=5) were inoculated intraperitoneally with 0.5 ml inoculum containing 5×10^5 CFU suspended in 5% porcine mucin.
The animals were treated with a single dose of meropenem subcutaneous+/−metallo-b-lactamase inhibitor intravenous 1 h after inoculation. Animals were either euthanised at the start of treatment or at the study endpoint at 3 h after treatment initiation. Clinical scores were monitored at 1 and 4 hours post inoculation and were in all cases mild or moderate. Mice were anaesthetised anesthetized with a buprenorphine/tiletamine/zolazepam cocktail and bled, then euthanized and the peritoneum flushed with 2 ml sterile 0.9% NaCl and collected. The blood and/or peritoneal flush were serially diluted and plated for incubation. Bacterial counting was performed after 18-22 h of incubation at 35° C. in ambient air.

[2] = molecular target: NDM-1 (Klebsiella pneumoniae, UniProt C7C422); assay: MBL inhibition, FC-5 fluorescence assay, NDM-1; type: biochemical; conditions: FC-5 cephalosporin substrate, fluorescence; ranges of obtained pIC50; read-out: pIC50 NDM-1 (converted)
Sequence of NDM-1 (C7C422 29-270, looked up, species assumed): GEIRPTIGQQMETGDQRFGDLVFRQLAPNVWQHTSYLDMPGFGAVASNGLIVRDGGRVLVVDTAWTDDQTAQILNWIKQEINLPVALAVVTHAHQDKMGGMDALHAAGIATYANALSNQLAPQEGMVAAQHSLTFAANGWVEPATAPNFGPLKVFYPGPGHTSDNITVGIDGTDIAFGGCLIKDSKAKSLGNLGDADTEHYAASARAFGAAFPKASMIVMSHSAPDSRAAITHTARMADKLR
Summary of the method: (§1)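 FC-5 turnover; fluorescence ex 380 nm/em 460 nm; initial rates; normalized dose-response, variable-slope fit; 4 replicates per concentration point.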

[3] = Metabolic stability in mouse hepatocytes; type: in vitro ADME; conditions: cryopreserved mouse hepatocytes, 1 μM compound, 37° C., up to 90 min, read-out: Metabolic stability in hepatocytes, in vitro t1/2, Mouse
Summary of the method: (§2)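 Cryopreserved hepatocytes at 1.0×10^6 cells/ml in Williams medium E were incubated with 1 μM compound (final) at 37° C. Samples at 0, 5, 15, 30, 60 and 90 min were quenched with MeCN containing warfarin internal standard and analysed by LC-MS/MS.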

[4] = molecular target: VIM-2 (Escherichia coli, UniProt Q5U7L7); assay: MBL inhibition, FC-5 fluorescence assay, VIM-2; type: biochemical; conditions: FC-5 cephalosporin substrate, ranges of obtained pIC50, read-out: pIC50 VIM-2 (converted)
Summary of the method: as §1

[5] = Metabolic stability in human hepatocytes; type: in vitro ADME; conditions: cryopreserved human hepatocytes, 1 μM compound, 37° C., up to 90 min, read-out: Metabolic stability in hepatocytes, in vitro t1/2, Human
Summary of the method: as §2

[6] = test system: Acinetobacter baumannii NDM-1; assay: Antibiotic susceptibility testing (MIC), AB NDM-1; type: cell-based; conditions: agar or broth dilution (CLSI/EUCAST)
Description: (§3) Antibiotic susceptibility testing was performed using the agar or broth dilution method, in line with the Clinical and Laboratory Standards Institute (CLSI) and European Committee on Antimicrobial Susceptibility Testing (EUCAST) requirements.

[7] = test system: Escherichia coli NDM-7; assay: Antibiotic susceptibility testing (MIC), EC NDM-7; type: cell-based; conditions: agar or broth dilution (CLSI/EUCAST)
Description: as §3

[8] = Plasma protein binding, equilibrium dialysis, human plasma; type: in vitro ADME; conditions: pH 7.4, equilibrium dialysis (RED) 4 hours at 37° C., read-out: Plasma protein binding, fu, Human
Summary of the method: (§4)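 Compound at 10 μM in plasma dialysed against 67 mM phosphate buffer pH 7.4 for 4 h at 37° C. in RED device; unbound fraction from buffer and plasma levels by LC-MS/MS. Plasma stability checked in parallel over 4 h at 37° C. versus frozen control.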

[9] = molecular target: VIM-1 (Pseudomonas aeruginosa, UniProt A0A0F7KYQ8); assay: MBL inhibition, FC-5 fluorescence assay, VIM-1; type: biochemical; conditions: FC-5 cephalosporin substrate, ranges of obtained pIC50, read-out: pIC50 VIM-1 (converted)
Summary of the method: as §1

[10] = Plasma protein binding, equilibrium dialysis, mouse plasma; type: in vitro ADME; conditions: pH 7.4, equilibrium dialysis (RED) 4 hours at 37° C., read-out: Plasma protein binding, fu, Mouse
Summary of the method: as §4

[11] = molecular target: IMP-1 (Serratia marcescens, UniProt P52699); assay: MBL inhibition, FC-5 fluorescence assay, IMP-1; type: biochemical; conditions: FC-5 cephalosporin substrate, fluorescence; ranges of obtained pIC50; read-out: pIC50 IMP-1 (converted)
Sequence of IMP-1 (P52699 19-246, looked up, species assumed): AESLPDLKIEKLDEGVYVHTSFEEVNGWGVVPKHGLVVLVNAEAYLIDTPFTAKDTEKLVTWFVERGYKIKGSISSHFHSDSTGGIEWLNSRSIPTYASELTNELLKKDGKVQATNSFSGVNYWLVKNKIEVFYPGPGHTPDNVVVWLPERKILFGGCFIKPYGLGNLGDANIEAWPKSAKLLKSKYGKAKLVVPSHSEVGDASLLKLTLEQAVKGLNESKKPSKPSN
Summary of the method: as §1

[12] = test system: Escherichia coli NDM-1; assay: Antibiotic susceptibility testing (MIC), EC NDM-1; type: cell-based; conditions: agar or broth dilution (CLSI/EUCAST)
Description: as §3

SMILES: C[C@@H](c1cccc2c(-c3ccc(CS(C)(=O)=O)c(F)c3)c(C(=O)O)[nH]c12)N1C[C@]2(C[C@@H](CN)C2)OC1=O [IC-60, 7-((1S)-1-(2S,4r)-(2-(aminomethyl)-6-oxo-5-oxa-7-azaspiro[3.4]oct-7-yl)ethyl)-3-(3-fluoro-4-((methylsulfonyl)methyl)phenyl)-1H-indole-2-carboxylic acid]
- Dose required to reduce minim 1 log fold CFU in a thigh and or a sepsis animal model [1]: C (C = 5-10 mg/kg)
- IC50 [2]: < 0.1 nM
- half-life at 1 μM [3]: > 6.67 h
- IC50 [4]: 0.1 to 1 nM
- half-life at 1 μM [5]: > 6.67 h
- MIC values AB NDM-1 [6]: A (A = MIC values ≤ 1)
- MIC values EC NDM-7 [7]: A (A = MIC values ≤ 1)
- fraction unbound at 4 h, 10 μM [8]: > 0.25
- IC50 [9]: 0.1 to 1 nM
- fraction unbound at 4 h, 10 μM [10]: 0.05 to 0.25
- IC50 [11]: > 10 nM
- MIC values EC NDM-1 [12]: A (A = MIC values ≤ 1)

SMILES: C[C@@H](c1cccc2c(-c3ccc(NS(C)(=O)=O)c(F)c3)c(C(=O)O)[nH]c12)n1cc(CN2CC(N)C2)oc1=O [IC-57, 7-[(1S)-1-{5-[(3-Aminoazetidin-1-yl)methyl]-2-oxo-2,3-dihydro-1,3-oxazol-3-yl}ethyl]-3-(3-fluoro-4-methanesulfonamidophenyl)-1H-indole-2-carboxylic acid]
- Dose required to reduce minim 1 log fold CFU in a thigh and or a sepsis animal model [1]: B (B = 30-10 mg/kg)
- IC50 [2]: < 0.1 nM
- half-life at 1 μM [3]: < 2.5 h
- IC50 [4]: 0.1 to 1 nM
- half-life at 1 μM [5]: 2.5 to 6.67 h
- MIC values AB NDM-1 [6]: A (A = MIC values ≤ 1)
- MIC values EC NDM-7 [7]: A (A = MIC values ≤ 1)
- fraction unbound at 4 h, 10 μM [8]: 0.05 to 0.25
- IC50 [9]: 1 to 10 nM
- fraction unbound at 4 h, 10 μM [10]: 0.005 to 0.05
- IC50 [11]: > 10 nM
- MIC values EC NDM-1 [12]: A (A = MIC values ≤ 1)

SMILES: C[C@@H](c1cccc2c(-c3ccnc(O)c3)c(C(=O)O)[nH]c12)N1C[C@]2(C[C@@H](CN)C2)OC1=O [IC-18, 7-((S)-1-((2S,4r)-2-(aminomethyl)-6-oxo-5-oxa-7-azaspiro[3.4]octan-7-yl)ethyl)-3-(2-hydroxypyridin-4-yl)-1H-indole-2-carboxylic acid]
- Dose required to reduce minim 1 log fold CFU in a thigh and or a sepsis animal model [1]: C (C = 5-10 mg/kg)
- IC50 [2]: 0.1 to 1 nM
- half-life at 1 μM [3]: > 6.67 h
- IC50 [4]: 0.1 to 1 nM
- half-life at 1 μM [5]: < 2.5 h
- MIC values AB NDM-1 [6]: B (B MIC values 2 ÷ 8)
- MIC values EC NDM-7 [7]: A (A = MIC values ≤ 1)
- fraction unbound at 4 h, 10 μM [8]: > 0.25
- IC50 [9]: 1 to 10 nM
- fraction unbound at 4 h, 10 μM [10]: 0.005 to 0.05
- IC50 [11]: > 10 nM
- MIC values EC NDM-1 [12]: A (A = MIC values ≤ 1)

SMILES: COc1cc(-c2c(C(=O)O)[nH]c3c([C@H](C)N4C[C@]5(C[C@@H](CN)C5)OC4=O)cccc23)ccn1 [IC-17, 7-((1S)-1-(2-(aminomethyl)-6-oxo-5-oxa-7-azaspiro[3.4]octan-7-yl)ethyl)-3-(2-methoxypyridin-4-yl)-1H-indole-2-carboxylic acid]
- Dose required to reduce minim 1 log fold CFU in a thigh and or a sepsis animal model [1]: B (B = 30-10 mg/kg)
- IC50 [2]: 0.1 to 1 nM
- half-life at 1 μM [3]: 2.5 to 6.67 h
- IC50 [4]: < 0.1 nM
- half-life at 1 μM [5]: > 6.67 h
- MIC values AB NDM-1 [6]: B (B MIC values 2 ÷ 8)
- MIC values EC NDM-7 [7]: A (A = MIC values ≤ 1)
- fraction unbound at 4 h, 10 μM [8]: 0.05 to 0.25
- IC50 [9]: 1 to 10 nM
- fraction unbound at 4 h, 10 μM [10]: 0.005 to 0.05
- IC50 [11]: > 10 nM
- MIC values EC NDM-1 [12]: A (A = MIC values ≤ 1)

SMILES: COc1cc(-c2c(C(=O)O)[nH]c3c([C@H](C)n4cc(CN5CC(N)C5)oc4=O)cccc23)ccn1 [IC-56, 7-[(1S)-1-{5-[(3-aminoazetidin-1-yl)methyl]-2-oxo-2,3-dihydro-1,3-oxazol-3-yl}ethyl]-3-(2-methoxypyridin-4-yl)-1H-indole-2-carboxylic acid]
- Dose required to reduce minim 1 log fold CFU in a thigh and or a sepsis animal model [1]: C (C = 5-10 mg/kg)
- IC50 [2]: < 0.1 nM
- half-life at 1 μM [3]: < 2.5 h
- IC50 [4]: 0.1 to 1 nM
- half-life at 1 μM [5]: > 6.67 h
- MIC values AB NDM-1 [6]: B (B MIC values 2 ÷ 8)
- MIC values EC NDM-7 [7]: A (A = MIC values ≤ 1)
- fraction unbound at 4 h, 10 μM [8]: 0.05 to 0.25
- IC50 [9]: > 10 nM
- fraction unbound at 4 h, 10 μM [10]: 0.005 to 0.05
- IC50 [11]: > 10 nM
- MIC values EC NDM-1 [12]: A (A = MIC values ≤ 1)

SMILES: C[C@@H](c1cccc2c(-c3ccc(NS(C)(=O)=O)c(F)c3)c(C(=O)O)[nH]c12)N1C[C@]2(C[C@@H](CN)C2)OC1=O [IC-14, 7-((S)-1-((2S,4r)-2-(Aminomethyl)-6-oxo-5-oxa-7-azaspiro[3.4]octan-7-yl)ethyl)-3-(3-fluoro-4-(methylsulfonamido)phenyl)-1H-indole-2-carboxylic acid]
- Dose required to reduce minim 1 log fold CFU in a thigh and or a sepsis animal model [1]: C (C = 5-10 mg/kg)
- IC50 [2]: < 0.1 nM
- half-life at 1 μM [3]: 2.5 to 6.67 h
- IC50 [4]: 0.1 to 1 nM
- half-life at 1 μM [5]: > 6.67 h
- MIC values AB NDM-1 [6]: B (B MIC values 2 ÷ 8)
- MIC values EC NDM-7 [7]: A (A = MIC values ≤ 1)
- fraction unbound at 4 h, 10 μM [8]: 0.05 to 0.25
- IC50 [9]: 0.1 to 1 nM
- fraction unbound at 4 h, 10 μM [10]: 0.05 to 0.25
- IC50 [11]: > 10 nM
- MIC values EC NDM-1 [12]: A (A = MIC values ≤ 1)
